Source: patent publication US11414474B2, “Long-acting adrenomedullin derivatives” (University of Miyazaki, priority 2014, dated 2022)
Each block holds one molecule with its values, some of them ahead of it.

What was measured:
AM receptor = target: T1, AM receptor (Homo sapiens, UniProt Q16602); test: Intracellular cAMP concentration-increasing effect in AM receptor-expressing HEK293 cells (cAMP ELISA); assay type: cell-based
T1 construct: expressed in transfected cells; host or cells: HEK293 cell line
T1 sequence (Q16602 23-461): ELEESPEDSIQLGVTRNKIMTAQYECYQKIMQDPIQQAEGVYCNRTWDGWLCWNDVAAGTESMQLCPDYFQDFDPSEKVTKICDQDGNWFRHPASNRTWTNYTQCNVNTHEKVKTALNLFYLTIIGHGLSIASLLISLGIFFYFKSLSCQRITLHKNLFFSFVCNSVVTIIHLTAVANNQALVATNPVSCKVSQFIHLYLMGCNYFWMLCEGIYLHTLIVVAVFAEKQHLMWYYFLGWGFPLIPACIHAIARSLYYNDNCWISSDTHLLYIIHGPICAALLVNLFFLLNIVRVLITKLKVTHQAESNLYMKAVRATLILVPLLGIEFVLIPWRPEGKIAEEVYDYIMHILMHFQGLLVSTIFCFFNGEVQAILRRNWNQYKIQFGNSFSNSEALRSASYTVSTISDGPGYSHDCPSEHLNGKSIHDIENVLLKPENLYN
T1 sequence (O60895 43-175 partner): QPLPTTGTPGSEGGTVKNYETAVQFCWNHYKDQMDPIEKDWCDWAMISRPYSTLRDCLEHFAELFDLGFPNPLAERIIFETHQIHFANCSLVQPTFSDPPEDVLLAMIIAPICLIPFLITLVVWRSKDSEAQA
Experimental: Then, the intracellular cAMP concentration in the HEK293 cells of each test sample was measured using an ELISA kit for cAMP measurement (GE Healthcare Japan Corp., #RPN2251).

[1] = tested on: blood pressure of the rat; test: Blood pressure-lowering effect after single intravenous dose in anesthetized rats; assay type: in vivo; settings: intravenous single dose 10 nmol/kg
Experimental: From the catheter tube of the right jugular vein, a physiological saline-heparin solution (physiological saline: 100 ml; heparin: 1000 units) was infused at 2.4 ml/hr. […] The catheter inserted in the carotid artery was connected to a pressure transducer. […] In the figure, the longitudinal axis indicates a difference obtained by subtracting the average blood pressure before the administration of each drug from the average blood pressure at the time of the administration of each drug.
In the case of these derivatives, the blood pressure-lowering effect was sustained even 90 minutes after the administration. […] The blood pressure-lowering effect of the adrenomedullin derivative shown in this test was well consistent with the prolonged half-life in blood shown in the above test.

in vivo = settings: male, Wistar, rat, iv
From the text: Each 11 to 14-week-old male Wistar rat was anesthetized by the inhalation of isoflurane. After tracheotomy, inhalational anesthesia was controlled at an isoflurane concentration of 1.5 to 2.5% and a flow rate of 0.6 to 0.8 L/min. The right jugular vein was isolated from the rat, and a catheter tube corresponding to 26 G was inserted thereto. Next, the left carotid artery was isolated from the rat thus treated, and a catheter tube corresponding to 23 G was inserted thereto. […] From the catheter inserted in the carotid artery, 300 μl of blood was collected over time from the start of the administration. Immediately, EDTA-2Na (300 μg) and aprotinin (21 μg) were added to the obtained blood sample, and the mixture was further centrifuged under conditions involving 3000 rpm and 10 minutes to obtain plasma. The AM concentration in the plasma of each sample was measured by chemiluminescent enzyme immunoassay. The half-lives in blood of the first and second phases were calculated from the measurement results of the AM concentration in the plasma using a two-compartment model.

[2] = tested on: DSS-induced enteritis (inflammatory bowel disease model); test: Therapeutic effect on DSS-induced inflammatory bowel disease model (total score, length of intestinal tract); assay type: in vivo, mouse; design: total score, median value / total score, mean±standard deviation: scale not given here; settings: for total score as compared with the control group: Steel's multiple comparison test, p<0.05 or P<0.01
Experimental: The body weight of the subject mouse was measured 3, 5, 7, 10 and 14 days after the start of the administration.
The body weight of the subject mouse and the form of stool thereof were evaluated 3, 5, 7, 10 and 14 days after the start of the administration on the basis of scoring criteria given below. The obtained scores were summed to calculate the total score of each sample.
The intestinal tract excised by anatomy was opened along its longitudinal axis, and fat tissues were removed, followed by washing with physiological saline. Next, the length of the intestinal tract was measured.
The total score evaluated by the procedures described above is indicated by a median value [mean±standard deviation]. The total scores of the control group obtained 3, 5, 7, 10 and 14 days after the start of the administration were 0.0 [0.6±0.3], 4.0 [3.7±0.4], 6.0 [5.4±0.5], 3.5 [4.1±0.4] and 0.0 [0.0±0.0], respectively.

[3] = second-phase half-life in blood
[4] = 0.02 nmol/kg/hr, 3 days after the start of the administration
[5] = 0.1 nmol/kg/hr, 3 days after the start of the administration
[6] = 0.5 nmol/kg/hr, 3 days after the start of the administration

Molecule: CCCCCCCCCCCCCCCC(=O)N[C@@H](Cc1ccc(O)cc1)C(=O)N[C@@H](CCCNC(=N)N)C(=O)N[C@@H](CCC(N)=O)C(=O)N[C@@H](CO)C(=O)N[C@@H](CCSC)C(=O)N[C@@H](CC(N)=O)C(=O)N[C@@H](CC(N)=O)C(=O)N[C@@H](Cc1ccccc1)C(=O)N[C@@H](CCC(N)=O)C(=O)NCC(=O)N[C@@H](CC(C)C)C(=O)N[C@@H](CCCNC(=N)N)C(=O)N[C@@H](CO)C(=O)N[C@@H](Cc1ccccc1)C(=O)NCC(=O)N[C@H]1CSSC[C@@H](C(=O)N[C@H](C(=O)N[C@H](C(=O)N[C@@H](CCC(N)=O)C(=O)N[C@@H](CCCCN)C(=O)N[C@@H](CC(C)C)C(=O)N[C@@H](C)C(=O)N[C@@H](Cc2c[nH]cn2)C(=O)N[C@@H](CCC(N)=O)C(=O)N[C@H](C(=O)N[C@@H](Cc2ccc(O)cc2)C(=O)N[C@@H](CCC(N)=O)C(=O)N[C@@H](Cc2ccccc2)C(=O)N[C@H](C(=O)N[C@@H](CC(=O)O)C(=O)N[C@@H](CCCCN)C(=O)N[C@@H](CC(=O)O)C(=O)N[C@@H](CCCCN)C(=O)N[C@@H](CC(=O)O)C(=O)N[C@@H](CC(N)=O)C(=O)N[C@H](C(=O)N[C@@H](C)C(=O)N2CCC[C@H]2C(=O)N[C@@H](CCCNC(=N)N)C(=O)N[C@@H](CO)C(=O)N[C@@H](CCCCN)C(=O)N[C@H](C(=O)N[C@@H](CO)C(=O)N2CCC[C@H]2C(=O)N[C@@H](CCC(N)=O)C(=O)NCC(=O)N[C@@H](Cc2ccc(O)cc2)C(N)=O)[C@@H](C)CC)C(C)C)[C@@H](C)O)[C@@H](C)CC)C(C)C)[C@@H](C)O)NC(=O)[C@H]([C@@H](C)O)NC(=O)CNC(=O)[C@H](Cc2ccccc2)NC(=O)[C@H](CCCNC(=N)N)NC1=O [Pal-h.AM(1-52)]
EC50 (AM receptor): 3.24 nM
maximum response value of increase in cAMP concentration as compared with h.AM(1-52) (AM receptor; AM receptor-expressing HEK293 cells): substantially equivalent
effect on blood pressure [1]: lowered the blood pressure
maximum pressure drop value compared with h.AM(1-52) [1]: lower than the value of h.AM(1-52)
half-life (in vivo; first-phase half-life in blood): 3.51 min
half-life (in vivo; [3]): 123 min

half-life (in vivo; first-phase half-life in blood): 0.61 min
half-life (in vivo; [3]): 18.9 min
Molecule: CC[C@H](C)[C@H](NC(=O)[C@H](CCC(N)=O)NC(=O)[C@H](Cc1c[nH]cn1)NC(=O)[C@H](C)NC(=O)[C@H](CC(C)C)NC(=O)[C@H](CCCCN)NC(=O)[C@H](CCC(N)=O)NC(=O)[C@@H](NC(=O)[C@@H](NC(=O)[C@@H]1CSSC[C@H](NC(=O)CNC(=O)[C@H](Cc2ccccc2)NC(=O)[C@H](CO)NC(=O)[C@H](CCCNC(=N)N)NC(=O)[C@H](CC(C)C)NC(=O)CNC(=O)[C@H](CCC(N)=O)NC(=O)[C@H](Cc2ccccc2)NC(=O)[C@H](CC(N)=O)NC(=O)[C@H](CC(N)=O)NC(=O)[C@H](CCSC)NC(=O)[C@H](CO)NC(=O)[C@H](CCC(N)=O)NC(=O)[C@H](CCCNC(=N)N)NC(=O)[C@@H](N)Cc2ccc(O)cc2)C(=O)N[C@@H](CCCNC(=N)N)C(=O)N[C@@H](Cc2ccccc2)C(=O)NCC(=O)N[C@@H]([C@@H](C)O)C(=O)N1)[C@@H](C)O)C(C)C)C(=O)N[C@@H](Cc1ccc(O)cc1)C(=O)N[C@@H](CCC(N)=O)C(=O)N[C@@H](Cc1ccccc1)C(=O)N[C@H](C(=O)N[C@@H](CC(=O)O)C(=O)N[C@@H](CCCCN)C(=O)N[C@@H](CC(=O)O)C(=O)N[C@@H](CCCCN)C(=O)N[C@@H](CC(=O)O)C(=O)N[C@@H](CC(N)=O)C(=O)N[C@H](C(=O)N[C@@H](C)C(=O)N1CCC[C@H]1C(=O)N[C@@H](CCCNC(=N)N)C(=O)N[C@@H](CO)C(=O)N[C@@H](CCCCN)C(=O)N[C@H](C(=O)N[C@@H](CO)C(=O)N1CCC[C@H]1C(=O)N[C@@H](CCC(N)=O)C(=O)NCC(=O)N[C@@H](Cc1ccc(O)cc1)C(N)=O)[C@@H](C)CC)C(C)C)[C@@H](C)O [h.AM(1-52), reference compound]
effect on blood pressure [1]: lowered the blood pressure
time after the administration at which the blood pressure before the administration was restored [1]: 30 min
time of maximum pressure drop after the administration [1]: 2 min

Molecule: PEG5000-h.AM(1-52): human adrenomedullin (1-52) N-terminally linked to PEG having an average molecular weight of 5000 via 1-oxo-1,6-hexanediyl
effect on blood pressure [1]: lowered the blood pressure
maximum pressure drop value compared with h.AM(1-52) [1]: lower than the value of h.AM(1-52)
total score, mean±standard deviation [2, 4]: 0.8±0.2
total score, median value [2, 4]: 1.0
total score, mean±standard deviation ([2]; 0.02 nmol/kg/hr, 5 days): 2.8±0.5
total score, median value ([2]; 0.02 nmol/kg/hr, 5 days): 2.5
total score, mean±standard deviation ([2]; 0.02 nmol/kg/hr, 7 days): 5.7±0.4
total score, median value ([2]; 0.02 nmol/kg/hr, 7 days): 5.5
total score, mean±standard deviation ([2]; 0.02 nmol/kg/hr, 10 days): 3.1±0.8
total score, median value ([2]; 0.02 nmol/kg/hr, 10 days): 2.5
length of the intestinal tract (mean±standard deviation) ([2]; 0.02 nmol/kg/hr, 14 days): 69.4±1.5 mm
total score, mean±standard deviation ([2]; 0.02 nmol/kg/hr, 14 days): 0.0±0.0
total score, median value ([2]; 0.02 nmol/kg/hr, 14 days): 0.0
total score, mean±standard deviation [2, 5]: 0.7±0.3
total score, median value [2, 5]: 0.0
total score, mean±standard deviation ([2]; 0.1 nmol/kg/hr, 5 days): 1.9±0.5
total score, median value ([2]; 0.1 nmol/kg/hr, 5 days): 1.5
total score, mean±standard deviation ([2]; 0.1 nmol/kg/hr, 7 days): 4.1±0.4
total score, median value ([2]; 0.1 nmol/kg/hr, 7 days): 5.0
total score, mean±standard deviation ([2]; 0.1 nmol/kg/hr, 10 days): 2.0±0.5
total score, median value ([2]; 0.1 nmol/kg/hr, 10 days): 2.0
total score as compared with the control group ([2]; 0.1 nmol/kg/hr, 10 days): significant decrease
length of the intestinal tract (mean±standard deviation) ([2]; 0.1 nmol/kg/hr, 14 days): 71.4±0.9 mm
total score, mean±standard deviation ([2]; 0.1 nmol/kg/hr, 14 days): 0.0±0.0
total score, median value ([2]; 0.1 nmol/kg/hr, 14 days): 0.0
total score as compared with the control group ([2]; 0.5 nmol/kg/hr, 5, 7 and 10 days): significant decrease
total score, mean±standard deviation [2, 6]: 1.3±0.3
total score, median value [2, 6]: 1.0
total score, mean±standard deviation ([2]; 0.5 nmol/kg/hr, 5 days): 1.1±0.3
total score, median value ([2]; 0.5 nmol/kg/hr, 5 days): 1.5
total score, mean±standard deviation ([2]; 0.5 nmol/kg/hr, 7 days): 3.0±0.3
total score, median value ([2]; 0.5 nmol/kg/hr, 7 days): 3.0
total score, mean±standard deviation ([2]; 0.5 nmol/kg/hr, 10 days): 2.1±0.4
total score, median value ([2]; 0.5 nmol/kg/hr, 10 days): 2.0
length of the intestinal tract (mean±standard deviation) ([2]; 0.5 nmol/kg/hr, 14 days): 72.4±0.9 mm
total score, mean±standard deviation ([2]; 0.5 nmol/kg/hr, 14 days): 0.0±0.0
total score, median value ([2]; 0.5 nmol/kg/hr, 14 days): 0.0
length of the intestinal tract as compared with the control group ([2]; all of 0.02, 0.1 and 0.5 nmol/kg/hr, Dunnett's multiple comparison test, P<0.05 or P<0.01): significantly different
